What was measured:
[1] = Z-average diameter and polydispersity index by dynamic light scattering (Zetasizer Nano); type: physicochemical; conditions: LNPs with 12.5%, 25% and 50% substitution of the named hydroxycholesterol
[2] = Stability of 100% hydroxycholesterol substitution LNPs over 28 days; conditions: 100% substitution of hydroxycholesterol for cholesterol, vs S2
Excerpt: FIG. 8B depicts measurements of z-average diameter, PDI, mRNA concentration, and encapsulation efficiency for S2 LNPs and LNP formulations with 100% cholesterol substitution taken over 28 days to assess LNP stability. […] Error bars denote standard deviation. FIG. 8C depicts the pKa, zeta potential, z-average diameter, and PDI measurements for the exemplary LNPs of the present disclosure. n=3. Error bars denote standard deviation.
Characterization parameters assessed over the 28-day period include z-average diameter, PDI, mRNA concentration, and encapsulation efficiency (Table 3).

SMILES | PDI (in words) [1] | z-average diameter (in words) [1] | stability (all characterization parameters) [2]
CC(C)[C@@H](O)CC[C@@H](C)[C@H]1CC[C@H]2[C@@H]3CC=C4C[C@@H](O)CC[C@]4(C)[C@H]3CC[C@]12C [B2, 24 (S)-hydroxycholesterol] | more polydisperse | increased particle diameters | 
CC(C)CCC[C@@H](C)[C@H]1CC[C@H]2[C@@H]3[C@H](O)C=C4C[C@@H](O)CC[C@]4(C)[C@H]3CC[C@]12C [A1, 7α-hydroxycholesterol] | remained within expected ranges | remained within expected ranges | comparable on all parameters on all days to S2
CC(C)CCC[C@@H](C)[C@H]1CC[C@H]2[C@@H]3CC=C4C[C@@H](O)CC[C@]4(CO)[C@H]3CC[C@]12C [A3, 19-hydroxycholesterol] | remained within expected ranges | remained within expected ranges | 
CC(C)CCC[C@@H](C)[C@H]1CC[C@H]2[C@@H]3[C@@H](O)C=C4C[C@@H](O)CC[C@]4(C)[C@H]3CC[C@]12C [A2, 7β-hydroxycholesterol] | remained within expected ranges | remained within expected ranges | comparable on all parameters on all days to S2
C[C@H](CCCC(C)(C)O)[C@H]1CC[C@H]2[C@@H]3CC=C4C[C@@H](O)CC[C@]4(C)[C@H]3CC[C@]12C [B3, 25-hydroxycholesterol] | more polydisperse | increased particle diameters | 
CC(C)CCC[C@](C)(O)[C@H]1CC[C@H]2[C@@H]3CC=C4C[C@@H](O)CC[C@]4(C)[C@H]3CC[C@@]21C [B1, 20 (S)-hydroxycholesterol] | remained within expected ranges | remained within expected ranges | comparable on all parameters on all days to S2

— patent publication US20250345284A1, “LIPID NANOPARTICLE (LNP) COMPOSITIONS AND METHODS OF USE THEREOF” (The Trustees Of The University of Pennsylvania, priority 2021, published 2025)
